From PMC11079024, “Identification of a family of species-selective complex I inhibitors as potential anthelmintics” (Nature Communications, 2024)
Where “and” joins values, the source holds several entries; their conditions need not be identical. Equal values may be shown once. Read-outs that look alike come from different tables or passages of the source.

Tests used:
[1] = tested on: HEK293 cells
[2] = target: M. musculus (heart) complex I (Mus musculus, UniProt P03888+Q91WD5+Q9DC70); experiment: biochemical; format: biochemical; parameters: Complex I activity, dose-response data: unit not given here; conditions: for activity at 0.0001 µM / Complex I activity, dose-response data / activity at 0.0005 µM / activity at 0.001 µM / activity at 0.0025 µM / activity at 0.005 µM / activity at 0.013 µM / activity at 0.025 µM / activity at 0.063 µM / activity at 0.125 µM / activity at 0.313 µM / activity at 0.625 µM / activity at 1.5 µM / activity at 3 µM / activity at 15 µM / activity at 37.5 µM / activity at 75 µM: M. musculus; for activity at 0.0001 µM / activity at 0.0005 µM / activity at 0.001 µM / activity at 0.0025 µM / activity at 0.005 µM / activity at 0.013 µM / activity at 0.025 µM / activity at 0.063 µM / activity at 0.125 µM / activity at 0.313 µM / activity at 0.625 µM / activity at 1.5 µM / activity at 3 µM / activity at 15 µM / activity at 37.5 µM / activity at 75 µM: read-out: Complex I activity, dose-response data; for IC50: heart mitochondria
Procedure: Six 8–10-week-old C57Bl/6 female mice (Charles River) were freshly dissected, and their livers and hearts collected into separate 1.5 mL microcentrifuge tubes. Organs were flash-frozen in liquid nitrogen and stored at −80 °C prior to use. The heart of a freshly slaughtered adult cow was obtained from a local abattoir (Peel Sausage Inc.), chopped into ~1-inch cubes and collected into 50 mL falcon tubes. Falcon tubes were flash-frozen in a container of dry ice and stored at −80 °C prior to use. Isolation of mitochondria from all mammalian tissue was carried out following the protocol described above. However, due to size, the initial homogenization of tissue was performed by 15 strokes in a dounce homogenizer (mouse heart) or with several 5 s pulses in small Nutribullet blender (cow heart). All mouse protocols for mouse care and dissection were reviewed and approved by the University of Toronto Animal Care Committee, in accordance with the Canadian Council on Animal Care.
The enzymatic activities of individual ETC complexes (I-IV) were assessed spectrophotometrically in isolated mitochondria using a Varioskan LUX Multimode plate reader (ThermoFisher Scientific). Mitochondrial pellets previously isolated were thawed on ice and resuspended in ice-cold isolation buffer (250 mM sucrose, 10 mM Tris (pH 7.5), 1 mM EDTA). The BCA assay (Walker, 1994) was used to quantify the protein concentration of mitochondria suspensions; solutions were diluted to a concentration of 0.2 mg/mL for use in all assays. For the complex I assay, mitochondria pellets were freeze-thawed on ice three times to increase enzyme accessibility. […] 20 μL mitochondria suspension was then added/mixed with a pipette to initiate the reaction. Immediately following the addition of mitochondria, absorbance was measured (complex I and II: 600 nm; complex III and IV: 550 nm) in 30 s intervals over 15 min. Enzymatic activity was determined in each reaction by plotting absorbance versus time and calculating the slope of the curve during the initial linear phase of the reaction. […] Percent activity of each complex was calculated by dividing the enzyme-specific activity of each well by the enzyme-specific activity of the corresponding solvent controls.
Chemical solutions were prepared in complex I assay buffer composed of 25 mM KPi buffer (pH 7.5), 3 mg/mL bovine serum albumin (BSA), 80 μM NADH, 60 μM decylubiquinone, 160 μM DCIP, 2 μM antimycin A and 2 mM KCN.
For preliminary screens of hit compounds, compounds were screened at 100 μM; data are the average of at least three biological replicates. The complex I and II activity assays were used for additional dose-response experiments. […] For dose responses of benzimidazole analogs, data represent the average of two biological replicates. For all other dose-responses, data represent the average of at least three biological replicates.

[3] = dose 0.4 µM, individual replicate (Rep)
[4] = dose 0.8 µM, individual replicate (Rep)
[5] = dose 6.3 µM, individual replicate (Rep)
[6] = dose 0.0001 µM, Mean of replicates
[7] = dose 0.0001 µM, individual replicates (Rep)
[8] = dose 0.0005 µM, Mean of replicates
[9] = dose 0.0005 µM, individual replicates (Rep)
[10] = dose 0.001 µM, Mean of replicates
[11] = dose 0.001 µM, individual replicates (Rep)
[12] = dose 0.0025 µM, Mean of replicates
[13] = dose 0.0025 µM, individual replicates (Rep)
[14] = dose 0.005 µM, Mean of replicates
[15] = dose 0.005 µM, individual replicates (Rep)
[16] = dose 0.013 µM, Mean of replicates
[17] = dose 0.013 µM, individual replicates (Rep)
[18] = dose 0.025 µM, Mean of replicates
[19] = dose 0.025 µM, individual replicates (Rep)
[20] = dose 0.063 µM, Mean of replicates
[21] = dose 0.063 µM, individual replicates (Rep)
[22] = dose 0.125 µM, Mean of replicates
[23] = dose 0.125 µM, individual replicates (Rep)
[24] = dose 0.313 µM, Mean of replicates
[25] = dose 0.313 µM, individual replicates (Rep)
[26] = dose 0.625 µM, Mean of replicates
[27] = dose 0.625 µM, individual replicates (Rep)
[28] = dose 1.5 µM, Mean of replicates
[29] = dose 1.5 µM, individual replicates (Rep)
[30] = dose 3 µM, individual replicates (Rep)
[31] = dose 15 µM, individual replicates (Rep)
[32] = dose 37.5 µM, Mean of replicates
[33] = dose 37.5 µM, individual replicates (Rep)
[34] = dose 75 µM, individual replicates (Rep)

Sequence of M. musculus (heart) complex I (Q91WD5 34-463): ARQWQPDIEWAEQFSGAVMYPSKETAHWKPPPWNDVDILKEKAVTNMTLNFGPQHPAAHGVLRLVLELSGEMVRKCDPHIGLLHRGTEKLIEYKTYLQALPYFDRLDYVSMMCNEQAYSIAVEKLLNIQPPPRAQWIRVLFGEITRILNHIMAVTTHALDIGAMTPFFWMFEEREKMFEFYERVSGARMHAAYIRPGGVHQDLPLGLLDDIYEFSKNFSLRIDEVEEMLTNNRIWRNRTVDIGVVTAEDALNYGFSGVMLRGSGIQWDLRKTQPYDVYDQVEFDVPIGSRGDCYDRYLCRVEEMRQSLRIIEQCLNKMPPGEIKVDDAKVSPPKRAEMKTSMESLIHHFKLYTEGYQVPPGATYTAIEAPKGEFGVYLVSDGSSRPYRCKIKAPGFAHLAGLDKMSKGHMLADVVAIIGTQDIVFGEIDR
Sequence of M. musculus (heart) complex I (Q9DC70 36-224): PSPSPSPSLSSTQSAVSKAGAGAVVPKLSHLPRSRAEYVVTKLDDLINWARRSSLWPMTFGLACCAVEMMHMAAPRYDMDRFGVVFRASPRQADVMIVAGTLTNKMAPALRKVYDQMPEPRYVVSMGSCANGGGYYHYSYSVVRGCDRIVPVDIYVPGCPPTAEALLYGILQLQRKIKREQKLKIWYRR
Sequence of M. musculus (heart) complex I (P03888 whole entry): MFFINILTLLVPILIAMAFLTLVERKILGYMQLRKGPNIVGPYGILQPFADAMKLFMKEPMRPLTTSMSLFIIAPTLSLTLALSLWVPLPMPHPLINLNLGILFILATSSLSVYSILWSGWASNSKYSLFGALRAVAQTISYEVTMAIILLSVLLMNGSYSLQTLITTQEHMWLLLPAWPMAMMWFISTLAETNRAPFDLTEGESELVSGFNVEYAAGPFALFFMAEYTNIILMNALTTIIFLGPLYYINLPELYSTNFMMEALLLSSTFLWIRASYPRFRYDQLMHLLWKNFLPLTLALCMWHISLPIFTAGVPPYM

## C=C(C)[C@H]1Cc2c(ccc3c2O[C@@H]2COc4cc(OC)c(OC)cc4[C@@H]2C3=O)O1 [Rotenone, reference compound]
[1]; [3]
  HEK293 viability: 0.393 and 0.409 and 0.194
[1]; [4]
  HEK293 viability: 0.340 and 0.322
[1]; dose 3.1 µM, individual replicate (Rep)
  HEK293 viability: 0.488 and 0.455
[1]; [5]
  HEK293 viability: 0.380 and 0.286
[1]; dose 12.5 µM, individual replicate (Rep)
  HEK293 viability: 0.265
[1]; dose 25 µM, individual replicate (Rep)
  HEK293 viability: 0.242 and 0.200
[1]; dose 50 µM, individual replicate (Rep)
  HEK293 viability: 0.196 and 0.203

## O=C(NCCc1ccc(Cl)cc1)c1ccccc1C(F)(F)F [Wact-11]
[1]
  HEK293 viability: 0.997
[1]; dose 0.4 µM, Mean of replicates
  HEK293 viability: 0.929
[1]; [3]
  HEK293 viability: 0.886 and 0.902
[1]; dose 0.8 µM, Mean of replicates
  HEK293 viability: 0.971
[1]; [4]
  HEK293 viability: 0.916
[1]; dose 6.3 µM, Mean of replicates
  HEK293 viability: 0.986
[1]; [5]
  HEK293 viability: 0.982 and 0.975
[1]; read-out: HEK293 Cell Viability Assay LC50, 2 days exposure
  CC50: > 50 µM

## COc1cc2c(cc1OC)C(/C=C/c1ccc(N(C)C)cc1)=NCC2 [NPD6303]
[2]; [6]
  activity at 0.0001 µM: 101%
[2]; [7]
  Complex I activity, dose-response data: 95.113 and 105.612 and 100.336
  activity at 0.0001 µM: 101%
[2]; [8]
  activity at 0.0005 µM: 103%
[2]; [9]
  Complex I activity, dose-response data: 98.745 and 107.836 and 100.101
  activity at 0.0005 µM: 104%
[2]; [10]
  activity at 0.001 µM: 104%
[2]; [11]
  Complex I activity, dose-response data: 97.287 and 111.616 and 104.649
  activity at 0.001 µM: 101%
[2]; [12]
  activity at 0.0025 µM: 105%
[2]; [13]
  Complex I activity, dose-response data: 102.935 and 109.008 and 106.731
  activity at 0.0025 µM: 103%
[2]; [14]
  activity at 0.005 µM: 104%
[2]; [15]
  Complex I activity, dose-response data: 104.920 and 109.298 and 99.669
  activity at 0.005 µM: 102%
[2]; [16]
  activity at 0.013 µM: 106%
[2]; [17]
  Complex I activity, dose-response data: 109.789 and 107.516 and 104.172
  activity at 0.013 µM: 104%
[2]; [18]
  activity at 0.025 µM: 104%
[2]; [19]
  Complex I activity, dose-response data: 102.950 and 107.489 and 103.259
  activity at 0.025 µM: 103%
[2]; [20]
  activity at 0.063 µM: 106%
[2]; [21]
  Complex I activity, dose-response data: 109.017 and 105.796 and 103.155
  activity at 0.063 µM: 107%
[2]; [22]
  activity at 0.125 µM: 104%
[2]; [23]
  Complex I activity, dose-response data: 107.003 and 106.214 and 101.940
  activity at 0.125 µM: 102%
[2]; [24]
  activity at 0.313 µM: 204%
[2]; [25]
  Complex I activity, dose-response data: 207.003 and 206.214 and 201.940
  activity at 0.313 µM: 202%
[2]; [26]
  activity at 0.625 µM: 304%
[2]; [27]
  Complex I activity, dose-response data: 307.003 and 306.214 and 301.940
  activity at 0.625 µM: 302%
[2]; [28]
  activity at 1.5 µM: 404%
[2]; [29]
  Complex I activity, dose-response data: 407.003 and 406.214 and 401.940
  activity at 1.5 µM: 402%
[2]; dose 3 µM, Mean of replicates
  activity at 3 µM: 98.6%
[2]; [30]
  Complex I activity, dose-response data: 93.765 and 96.975 and 100.381
  activity at 3 µM: 103%
[2]; dose 15 µM, Mean of replicates
  activity at 15 µM: 80.3%
[2]; [31]
  Complex I activity, dose-response data: 83.390 and 75.202 and 80.206
  activity at 15 µM: 82.4%
[2]; [32]
  activity at 37.5 µM: 54.3%
[2]; [33]
  Complex I activity, dose-response data: 55.014 and 49.927 and 52.999
  activity at 37.5 µM: 59.2%
[2]; dose 75 µM, Mean of replicates
  activity at 75 µM: 38.9%
[2]; [34]
  Complex I activity, dose-response data: 39.690 and 34.902 and 38.927
  activity at 75 µM: 41.9%
[2]
  IC50: 34.9 µM

## COc1cc2c(cc1OC)C(C(C)c1ccc(CC(C)C)cc1)=NCC2 (stereo not shown) [NPD10504]
[2]; [6]
  activity at 0.0001 µM: 100%
[2]; [7]
  Complex I activity, dose-response data: 98.111 and 98.124 and 101.101
  activity at 0.0001 µM: 104%
[2]; [8]
  activity at 0.0005 µM: 102%
[2]; [9]
  Complex I activity, dose-response data: 96.317 and 102.767 and 102.719
  activity at 0.0005 µM: 108%
[2]; [10]
  activity at 0.001 µM: 105%
[2]; [11]
  Complex I activity, dose-response data: 99.985 and 104.571 and 105.658
  activity at 0.001 µM: 109%
[2]; [12]
  activity at 0.0025 µM: 106%
[2]; [13]
  Complex I activity, dose-response data: 98.620 and 108.582 and 106.862
  activity at 0.0025 µM: 111%
[2]; [14]
  activity at 0.005 µM: 106%
[2]; [15]
  Complex I activity, dose-response data: 97.614 and 105.909 and 105.173
  activity at 0.005 µM: 114%
[2]; [16]
  activity at 0.013 µM: 106%
[2]; [17]
  Complex I activity, dose-response data: 117.888 and 97.083 and 107.285 and 103.285
[2]; [18]
  activity at 0.025 µM: 108%
[2]; [19]
  Complex I activity, dose-response data: 106.620 and 105.888 and 103.706
  activity at 0.025 µM: 114%
[2]; [20]
  activity at 0.063 µM: 102%
[2]; [21]
  Complex I activity, dose-response data: 96.239 and 106.202 and 93.573
  activity at 0.063 µM: 112%
[2]; [22]
  activity at 0.125 µM: 100%
[2]; [23]
  Complex I activity, dose-response data: 95.373 and 99.771 and 94.821
  activity at 0.125 µM: 110%
[2]; [24]
  activity at 0.313 µM: 200%
[2]; [25]
  Complex I activity, dose-response data: 195.373 and 199.771 and 194.821
  activity at 0.313 µM: 210%
[2]; [26]
  activity at 0.625 µM: 300%
[2]; [27]
  Complex I activity, dose-response data: 295.373 and 299.771 and 294.821
  activity at 0.625 µM: 310%
[2]; [28]
  activity at 1.5 µM: 400%
[2]; [29]
  Complex I activity, dose-response data: 395.373 and 399.771 and 394.821
  activity at 1.5 µM: 410%
[2]; dose 3 µM, Mean of replicates
  activity at 3 µM: 75.9%
[2]; [30]
  Complex I activity, dose-response data: 70.628 and 77.319 and 76.050
  activity at 3 µM: 79.7%
[2]; dose 15 µM, Mean of replicates
  activity at 15 µM: 32.6%
[2]; [31]
  Complex I activity, dose-response data: 30.650 and 32.968 and 29.935
  activity at 15 µM: 37%
[2]; [32]
  activity at 37.5 µM: 10.6%
[2]; [33]
  Complex I activity, dose-response data: 11.252 and 10.388 and 9.191
  activity at 37.5 µM: 11.7%
[2]; dose 75 µM, Mean of replicates
  activity at 75 µM: 3.69%
[2]; [34]
  Complex I activity, dose-response data: 3.180 and 4.662 and 2.397
  activity at 75 µM: 4.5%
[2]
  IC50: 9.52 µM
